Experimental data from ChEMBL document CHEMBL1201862, “PubChem BioAssay data set” (2004).
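Exposure lasted 48 hours, with cells grown in 96-well plates and compounds tested at five concentrations. Abbreviation: GI50, concentration required for 50% inhibition of growth.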 Calls of active or inactive are those of the source. No stated cut-off is given here; in the data, active = GI50 up to about 1.1 µM and inactive = higher.

What was measured:
Experiment in all cases: NCI tumour cell line growth inhibition, 48 h
EKVX = test system: EKVX
NCI-H23 = test system: NCI-H23
NCI-H226 = test system: NCI-H226
OVCAR-8 = test system: OVCAR-8
SK-MEL-28 = test system: SK-MEL-28
786-0 = test system: 786-0
SK-MEL-5 = test system: SK-MEL-5
OVCAR-5 = test system: OVCAR-5
Malme-3M = test system: Malme-3M
RXF 393 = test system: RXF 393
SF-539 = test system: SF-539
COLO 205 = test system: COLO 205
SW-620 = test system: SW-620
MOLT-4 = test system: MOLT-4
K562 = test system: K562
HCT-15 = test system: HCT-15
ACHN = test system: ACHN
HCC 2998 = test system: HCC 2998

SMILES | GI50 (EKVX) | GI50 (NCI-H23) | GI50 (NCI-H226) | GI50 (OVCAR-8) | GI50 (SK-MEL-28) | GI50 (786-0) | GI50 (SK-MEL-5) | GI50 (OVCAR-5) | GI50 (Malme-3M) | GI50 (RXF 393) | GI50 (SF-539) | GI50 (COLO 205) | GI50 (SW-620) | GI50 (MOLT-4) | GI50 (K562) | GI50 (HCT-15) | GI50 (ACHN) | GI50 (HCC 2998)
O=c1[nH]c(Br)nc2c(Br)c[nH]c12 | > 100 µM (inactive) | > 100 µM (inactive) | > 100 µM (inactive) | > 100 µM (inactive) | > 100 µM (inactive) | > 100 µM (inactive) | > 100 µM (inactive) | > 100 µM (inactive) | > 100 µM (inactive) | > 100 µM (inactive) | > 100 µM (inactive) | > 100 µM (inactive) | > 100 µM (inactive) | > 100 µM (inactive) | > 100 µM (inactive) | > 100 µM | > 100 µM (inactive) | 
N#Cc1cc(NC(=O)c2ccccc2)c(=O)n2c1[nH]c1ccccc12 | 36.3 µM (inactive) | 20 µM (inactive) |  | 38.3 µM (inactive) | 21.6 µM (inactive) | 37.2 µM (inactive) | 12.7 µM (inactive) |  | 23.9 µM (inactive) | 13.6 µM (inactive) | 21.5 µM (inactive) | 31.6 µM (inactive) | 39 µM (inactive) | 29.6 µM (inactive) | 31.7 µM (inactive) | 31 µM | 29.9 µM (inactive) | 28.8 µM (inactive)
Cc1nc(-n2nc(-c3ccccc3)cc2-c2ccccc2)sc1C(=O)CC(=O)C(=O)Nc1ccc(O)cc1 | > 100 µM (inactive) | > 100 µM (inactive) | > 100 µM (inactive) | > 100 µM (inactive) |  | > 100 µM (inactive) |  | > 100 µM (inactive) | > 100 µM (inactive) | > 100 µM (inactive) | > 100 µM (inactive) | > 100 µM (inactive) | > 100 µM (inactive) | > 100 µM (inactive) | > 100 µM (inactive) | > 100 µM | > 100 µM (inactive) | > 100 µM (inactive)
Cc1cc2c3ccccc3n3c2c2c1OC1(C)CCC(C2C1)C3(C)C (stereo unspecified) |  |  | > 25 µM (inactive) | > 25 µM (inactive) | > 25 µM (inactive) | > 25 µM (inactive) | > 25 µM (inactive) | > 25 µM (inactive) | > 25 µM (inactive) |  | > 25 µM (inactive) | > 25 µM (inactive) | > 25 µM (inactive) | > 25 µM (inactive) | > 25 µM (inactive) | > 25 µM | > 25 µM (inactive) | > 25 µM (inactive)
Cc1ccc(S(=O)(=O)Nc2ccccc2C(C)(C)C)cc1 | 33.2 µM (inactive) | 15.5 µM (inactive) | 22.1 µM (inactive) | 29.6 µM (inactive) | 19.7 µM (inactive) | 25.5 µM (inactive) | 15.2 µM (inactive) | 34.6 µM (inactive) | 30.6 µM (inactive) | 6.31 µM (inactive) | 17.3 µM (inactive) |  | 32.3 µM (inactive) | 20.9 µM (inactive) | 18 µM (inactive) | 20.7 µM | 28.1 µM (inactive) | 42.8 µM (inactive)
CC1(C)CC(=O)C=C(NC(=O)c2ccccc2)C1 | > 100 µM (inactive) | > 100 µM (inactive) |  | > 100 µM (inactive) | > 100 µM (inactive) | > 100 µM (inactive) | > 100 µM (inactive) |  | > 100 µM (inactive) | > 100 µM (inactive) | > 100 µM (inactive) | > 100 µM (inactive) | > 100 µM (inactive) | > 100 µM (inactive) | > 100 µM (inactive) | > 100 µM |  | > 100 µM (inactive)
COc1ccc(C[C@H](N)C(=O)NC2C(CO)OC(n3cnc4c(N(C)C)ncnc43)C2O)cc1 (stereo partly specified) | 0.202 µM (active) | 0.161 µM (active) | 0.174 µM (active) | 0.182 µM (active) | 0.187 µM (active) | 0.695 µM (active) | 0.234 µM (active) | 5.31 µM (inactive) | 0.524 µM (active) | 0.261 µM (active) |  | 0.154 µM (active) | 0.143 µM (active) | 0.13 µM (active) | 0.133 µM (active) | 2.86 µM | 1.01 µM (active) | 0.29 µM (active)
O=C1OC(=O)C2C1C1(c3ccccc3)OC2(c2ccccc2)c2c(Br)c(Br)c(Br)c(Br)c21 (stereo unspecified) | > 100 µM (inactive) | > 100 µM (inactive) | > 100 µM (inactive) | > 100 µM (inactive) |  | > 100 µM (inactive) | > 100 µM (inactive) | > 100 µM (inactive) | > 100 µM (inactive) | 42.3 µM (inactive) | > 100 µM (inactive) | > 100 µM (inactive) | > 100 µM (inactive) | > 100 µM (inactive) | > 100 µM (inactive) | > 100 µM |  | 
CC(C)(C=O)CC(C#N)/C(=N\NC(N)=O)C(=O)Nc1ccccc1C(N)=O (stereo unspecified) | > 100 µM (inactive) | > 100 µM (inactive) | > 100 µM (inactive) | > 100 µM (inactive) | > 100 µM (inactive) | > 100 µM (inactive) | > 100 µM (inactive) | > 100 µM (inactive) | > 100 µM (inactive) |  | > 100 µM (inactive) |  | > 100 µM (inactive) | > 100 µM (inactive) | > 100 µM (inactive) | > 100 µM | > 100 µM (inactive) | > 100 µM (inactive)
Oc1ccc([Te]CCNCC[Te]c2ccc(O)cc2)cc1 | 3.56 µM (inactive) | 4.78 µM (inactive) | 21.3 µM (inactive) | 16.3 µM (inactive) |  | 28.7 µM (inactive) | 11.9 µM (inactive) | 16 µM (inactive) | 22.6 µM (inactive) |  | > 10 µM (inactive) | 7.13 µM (inactive) | 23.1 µM (inactive) | 4.49 µM (inactive) | 10 µM (inactive) |  | 20.1 µM (inactive) | 12.8 µM (inactive)
COc1cc2ccnc3c2c(c1OC)-c1coc(SC)c1-3 |  |  |  | 35.2 µM (inactive) |  | 57 µM (inactive) | 54.7 µM (inactive) | > 100 µM (inactive) | > 100 µM (inactive) | 4.67 µM (inactive) | 56.5 µM (inactive) | > 100 µM (inactive) | > 100 µM (inactive) | 22.1 µM (inactive) | > 100 µM (inactive) | > 100 µM | > 100 µM (inactive) | > 100 µM (inactive)
O=C1c2ccccc2C(=O)c2c(O)c(NCCNCCO)cc(O)c21 | 2.47 µM (inactive) | 3.77 µM (inactive) | 3.83 µM (inactive) | 3.01 µM (inactive) | 5.11 µM (inactive) | 3.33 µM (inactive) | 3.44 µM (inactive) | 10.2 µM (inactive) | 12.1 µM (inactive) | 4.74 µM (inactive) | 4.93 µM (inactive) |  | 2.79 µM (inactive) | 3.02 µM (inactive) | 2.75 µM (inactive) | 3.64 µM | 2.17 µM (inactive) | 3.78 µM (inactive)
Nc1cc(=O)n(-c2ccccc2)c(=S)n1-c1ccccc1 | > 100 µM (inactive) |  | > 100 µM (inactive) | > 100 µM (inactive) |  | > 100 µM (inactive) | > 100 µM (inactive) | > 100 µM (inactive) | > 100 µM (inactive) | > 100 µM (inactive) | > 100 µM (inactive) | > 100 µM (inactive) | > 100 µM (inactive) | > 100 µM (inactive) | > 100 µM (inactive) | > 100 µM | > 100 µM (inactive) | > 100 µM (inactive)
CCOC(=O)C1CC/C(=C(/C#N)C(=O)OC)N1 (stereo unspecified) | > 100 µM (inactive) | > 100 µM (inactive) |  | > 100 µM (inactive) | > 100 µM (inactive) | > 100 µM (inactive) | > 100 µM (inactive) |  |  | > 100 µM (inactive) | > 100 µM (inactive) | > 100 µM (inactive) | > 100 µM (inactive) | > 100 µM (inactive) | > 100 µM (inactive) | > 100 µM | > 100 µM (inactive) | > 100 µM (inactive)
COc1ccc2nccc(C3=CCC4CCN(C(=O)c5ccccc5)C3C4)c2c1 (stereo unspecified) | > 100 µM (inactive) | > 100 µM (inactive) |  | > 100 µM (inactive) | > 100 µM (inactive) | > 100 µM (inactive) | 93.3 µM (inactive) |  | > 100 µM (inactive) | > 100 µM (inactive) | > 100 µM (inactive) | > 100 µM (inactive) | > 100 µM (inactive) | 44.9 µM (inactive) | 74.5 µM (inactive) | > 100 µM |  | > 100 µM (inactive)
COc1ccc2[nH]c3c(c2c1)CCN(C)CC3 | > 100 µM (inactive) | > 100 µM (inactive) |  | > 100 µM (inactive) | > 100 µM (inactive) | > 100 µM (inactive) | > 100 µM (inactive) | > 100 µM (inactive) | > 100 µM (inactive) |  | > 100 µM (inactive) | > 100 µM (inactive) | > 100 µM (inactive) | > 100 µM (inactive) | > 100 µM (inactive) | > 100 µM | > 100 µM (inactive) | > 100 µM (inactive)
COc1ccc2cccc(C(=N)c3ccc(C)c4c3CCC4)c2c1 | 15.5 µM (inactive) | 7.57 µM (inactive) | 12.2 µM (inactive) | 11.4 µM (inactive) | 13 µM (inactive) | 10.2 µM (inactive) | 3.9 µM (inactive) | 6.17 µM (inactive) | 3.62 µM (inactive) | 12.8 µM (inactive) |  | 11.9 µM (inactive) | 5.38 µM (inactive) | 8.63 µM (inactive) | 2.92 µM (inactive) | 7.46 µM | 9.98 µM (inactive) | 10.8 µM (inactive)
Cc1ccc(-n2c3nc(=O)n(C)c(=O)c-3nc3ccccc32)cc1 | 12.9 µM (inactive) | 1.56 µM (inactive) | 17.3 µM (inactive) | 9.2 µM (inactive) |  | 30.2 µM (inactive) | 13.4 µM (inactive) | 23.8 µM (inactive) | 13.8 µM (inactive) | 64.9 µM (inactive) | 27.8 µM (inactive) | 4.47 µM (inactive) | 5.75 µM (inactive) | 14.9 µM (inactive) | 17 µM (inactive) | 8.18 µM | 3.26 µM (inactive) | 4.61 µM (inactive)
